Assay results from the supplement of paper PMC10307832.

Columns and labels:
Experiment in all cases: relative viability (nuclei count vs DMSO), 5 days (fraction); higher = more cells survive
Dovitinib + Navitoclax = compound: CN1CCN(c2ccc3nc(-c4c(N)c5c(F)cccc5[nH]c4=O)[nH]c3c2)CC1 [Dovitinib] + CC1(C)CCC(c2ccc(Cl)cc2)=C(CN2CCN(c3ccc(C(=O)NS(=O)(=O)c4ccc(N[C@H](CCN5CCOCC5)CSc5ccccc5)c(S(=O)(=O)C(F)(F)F)c4)cc3)CC2)C1 [Navitoclax] (partner 0.5 µM)
Summary of the method: (§1)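 After 5 days of treatment, lung cancer cells in 1536-well plates were fixed and stained in a single step (final 0.05% Triton X-100, 1% formaldehyde, 1 ug/ml Hoechst) and their nuclei counted on 4× images. Treatment had been applied by pin tool the day after seeding as one drug alone or as a fixed anchor-drug dose with five library-drug doses (not always all listed) in √10 steps. Relative viability is the nuclei count of treated wells divided by that of vehicle wells, and values are medians of duplicate plates.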

Dovitinib + Linsitinib = compound: CN1CCN(c2ccc3nc(-c4c(N)c5c(F)cccc5[nH]c4=O)[nH]c3c2)CC1 [Dovitinib] + C[C@]1(O)C[C@@H](c2nc(-c3ccc4ccc(-c5ccccc5)nc4c3)c3c(N)nccn32)C1 [Linsitinib] (partner 1 µM)
Summary of the method: as §1

Dovitinib + Foretinib = compound: CN1CCN(c2ccc3nc(-c4c(N)c5c(F)cccc5[nH]c4=O)[nH]c3c2)CC1 [Dovitinib] + COc1cc2c(Oc3ccc(NC(=O)C4(C(=O)Nc5ccc(F)cc5)CC4)cc3F)ccnc2cc1OCCCN1CCOCC1 [Foretinib] (partner 0.25 µM)
Summary of the method: as §1

Dovitinib + Luminespib = compound: CN1CCN(c2ccc3nc(-c4c(N)c5c(F)cccc5[nH]c4=O)[nH]c3c2)CC1 [Dovitinib] + CCNC(=O)c1noc(-c2cc(C(C)C)c(O)cc2O)c1-c1ccc(CN2CCOCC2)cc1 [Luminespib] (partner 0.01 µM)
Summary of the method: as §1

| Cell Line | relative viability (Dovitinib + Navitoclax; first compound 0.02 µM) | relative viability (Dovitinib + Navitoclax; first compound 0.06325 µM) | relative viability (Dovitinib + Navitoclax; first compound 0.2 µM) | relative viability (Dovitinib + Navitoclax; first compound 0.6325 µM) | relative viability (Dovitinib + Navitoclax; first compound 2 µM) | relative viability (Dovitinib + Linsitinib; first compound 0.02 µM) | relative viability (Dovitinib + Linsitinib; first compound 0.06325 µM) | relative viability (Dovitinib + Linsitinib; first compound 0.2 µM) | relative viability (Dovitinib + Linsitinib; first compound 0.6325 µM) | relative viability (Dovitinib + Linsitinib; first compound 2 µM) | relative viability (Dovitinib + Foretinib; first compound 0.02 µM) | relative viability (Dovitinib + Foretinib; first compound 0.06325 µM) | relative viability (Dovitinib + Foretinib; first compound 0.2 µM) | relative viability (Dovitinib + Foretinib; first compound 0.6325 µM) | relative viability (Dovitinib + Foretinib; first compound 2 µM) | relative viability (Dovitinib + Luminespib; first compound 0.02 µM) | relative viability (Dovitinib + Luminespib; first compound 0.06325 µM) | relative viability (Dovitinib + Luminespib; first compound 0.2 µM) | relative viability (Dovitinib + Luminespib; first compound 0.6325 µM) | relative viability (Dovitinib + Luminespib; first compound 2 µM) |
| --- | --- | --- | --- | --- | --- | --- | --- | --- | --- | --- | --- | --- | --- | --- | --- | --- | --- | --- | --- | --- |
| HCC-366 | 1.07 | 1.16 | 1.02 | 1.08 | 0.971 | 0.645 | 0.584 | 0.549 | 0.665 | 0.592 | 0.958 | 0.901 | 0.947 | 0.925 | 0.883 | – | – | – | – | – |
| HCC-827 | 1.03 | 1.02 | 1.07 | 1 | 0.974 | 0.895 | 0.97 | 0.959 | 0.928 | 0.898 | 0.983 | 1.07 | 1.14 | 1.09 | 1.09 | 0.854 | 0.676 | 0.596 | 0.509 | 0.717 |
| HOP-62 | 0.95 | 0.995 | 1.01 | 1.1 | 1.08 | 0.784 | 0.852 | 1.1 | 0.921 | 1.03 | 1.05 | 1.18 | 1.08 | 1.28 | 1.07 | 0.888 | 1.03 | 0.868 | 0.89 | 0.931 |
| IA-LM | 0.778 | 0.961 | 0.814 | 0.704 | 0.76 | 0.602 | 0.544 | 0.627 | 0.614 | 0.547 | 1.2 | 1.19 | 1.05 | 1.24 | 1.12 | – | – | – | – | – |
| LC-2-ad | 0.463 | 0.603 | 0.403 | 0.382 | 0.376 | 0.798 | 0.919 | 0.84 | 0.782 | 0.773 | 0.989 | 0.946 | 1.03 | 0.911 | 1.05 | 0.991 | 0.994 | 1.01 | 0.979 | 0.995 |
| LCLC-97TM1 | 0.368 | 0.384 | 0.339 | 0.403 | 0.478 | 0.216 | 0.21 | 0.201 | 0.152 | 0.213 | 0.986 | 0.974 | 1.01 | 0.922 | 1.01 | 0.953 | 0.746 | 0.831 | 0.801 | 0.701 |
| LCLC-103H | – | – | – | – | – | 1.09 | 0.988 | 1.03 | 1.08 | 1.04 | 0.901 | 0.674 | 0.826 | 0.79 | 0.764 | 0.963 | 1 | 1.01 | 0.885 | 0.922 |
| LK-2 | 0.995 | 0.896 | 0.876 | 0.766 | 0.767 | 0.688 | 0.604 | 0.484 | 0.608 | 0.565 | 1.39 | 1.21 | 1.4 | 0.946 | 1.04 | 0.191 | 0.162 | 0.179 | 0.219 | 0.182 |
| LOU-NH91 | 0.687 | 0.72 | 0.684 | 0.7 | 0.804 | 0.984 | 0.915 | 0.968 | 1 | 1.05 | 0.926 | 0.896 | 0.95 | 0.921 | 1.05 | 0.322 | 0.308 | 0.335 | 0.327 | 0.349 |
